PubChem BioAssay AID276 (DTP/NCI, 2004)
“And” between values parts separate entries of the source, which are not always exact repeats. Equal values may be shown once. Toxic doses and inconclusive results are not listed. The calls were made as follows: active = survival T/C of 150% or more; inactive = T/C below 125% in these data.

Test system: B6C3F1 mice, Lewis lung carcinoma iv, survival T/C
Assay: NCI In Vivo Anticancer Drug Screen. Data for tumor model Lewis Lung Carcinoma (intravenous) in B6C3F1 mice
Conditions: endpoint: median survival time, schedule: Q01DX009 (ip), higher = longer survival
Procedure: The antitumor activity of compounds was measured in mice bearing transplantable tumors. Survival or tumor size were measured and the results are expressed as the measurement made in the treated group (T) divided by the measurement made in the vehicle treated control group (C). The tumor model used in this assay is Lewis Lung Carcinoma (intravenous) in B6C3F1 mice

[1] = dose: 25.0 mg/kg/injection, vehicle: saline with Tween-80
[2] = dose: 50.0 mg/kg/injection, vehicle: saline with Tween-80
[3] = dose: 25.0 mg/kg/injection, vehicle: saline
[4] = dose: 50.0 mg/kg/injection, vehicle: saline
[5] = dose: 100.0 mg/kg/injection, vehicle: saline
[6] = dose: 200.0 mg/kg/injection, vehicle: saline
[7] = dose: 1.0 mg/kg/injection, vehicle: distilled water + Tween-80
[8] = dose: 2.0 mg/kg/injection, vehicle: distilled water + Tween-80

Measured: T/C

C=C1C(=O)OC2/C=C(\C)CC(O)/C=C(/CO)CC(OC(=O)/C(C)=C/C)C12 (stereo not given)
inactive: dose: 15.0 mg/kg/injection, vehicle: saline with Tween-80 91 % of control | dose: 30.0 mg/kg/injection, vehicle: saline with Tween-80 101 % of control

O=C(Nc1ccccc1)c1c(O)[nH]c(=S)[nH]c1=O
inactive: dose: 12.5 mg/kg/injection, vehicle: saline with Tween-80 103 % of control | [1] 106 % of control | [2] 115 % of control

Nc1ncnc2c1cnn2Cc1ccc(Cl)cc1
inactive: [3] 94 % of control | [4] 106 % of control | [5] 111 % of control | [6] 93 % of control

O=C(NC1CCCCC1)OCc1c(COC(=O)NC2CCCCC2)c(-c2ccc(Cl)c(Cl)c2)n2c1CCC2
inactive: [1] 100 % of control and 108 % of control | [2] 102 % of control and 105 % of control | dose: 100.0 mg/kg/injection, vehicle: saline with Tween-80 95 % of control and 108 % of control | dose: 200.0 mg/kg/injection, vehicle: saline with Tween-80 106 % of control and 113 % of control | dose: 400.0 mg/kg/injection, vehicle: saline with Tween-80 110 % of control and 120 % of control

CCOC(=O)C(N)CSC(=O)NC (stereo not given)
inactive: dose: 12.5 mg/kg/injection, vehicle: saline 98 % of control | [3] 103 % of control | [4] 93 % of control | [5] 101 % of control | [6] 109 % of control

CC(=O)OC1C(O)C(C)OC(OC2C(OC(=O)C3CCC4C(C3)OC3(CC(OC(=O)/C=C/c5ccccc5)C(C)CO3)C43CO3)OC(C)C(O)C2OC(C)=O)C1O (stereo not given)
inactive: [7] 105 % of control | [8] 99 % of control | dose: 4.0 mg/kg/injection, vehicle: distilled water + Tween-80 100 % of control | dose: 8.0 mg/kg/injection, vehicle: distilled water + Tween-80 102 % of control | dose: 16.0 mg/kg/injection, vehicle: distilled water + Tween-80 91 % of control

CC(C)=CC(=O)OC1C2C(C)=CC(=O)C(O)C2(C)C2C3(O)OCC24C(CC(=O)OC14)C(C)C3O (stereo not given)
inactive: dose: 0.25 mg/kg/injection, vehicle: distilled water + Tween-80 107 % of control | dose: 0.5 mg/kg/injection, vehicle: distilled water + Tween-80 98 % of control | [7] 102 % of control | [8] 98 % of control

COc1c(C=O)c2c(c(OC)c1OC)-c1ccc(OC)c(=O)cc1[C@@H](NC(C)=O)CC2
inactive: dose: 1.56 mg/kg/injection, vehicle: Klucel (hydroxypropylcellulose) (HPC) 95 % of control | dose: 3.12 mg/kg/injection, vehicle: Klucel (hydroxypropylcellulose) (HPC) 98 % of control | dose: 6.25 mg/kg/injection, vehicle: Klucel (hydroxypropylcellulose) (HPC) 95 % of control

Cc1ccccc1CN1C2=NCCN2C(=O)C2=C1CCN(S(=O)(=O)c1ccc(Cl)c(S(N)(=O)=O)c1)C2
inactive: dose: 12.0 mg/kg/injection, vehicle: saline 103 % of control | [3] 99 % of control | [4] 94 % of control | [5] 99 % of control and 101 % of control | [6] 96 % of control and 102 % of control | dose: 400.0 mg/kg/injection, vehicle: saline 94 % of control and 98 % of control

Nc1ncnc2c1nnn2C1OC(CO)C(O)C1O (stereo not given)
inactive: dose: 12.5 mg/kg/injection, vehicle: Klucel (hydroxypropylcellulose) (HPC) 110 % of control | dose: 25.0 mg/kg/injection, vehicle: Klucel (hydroxypropylcellulose) (HPC) 103 % of control | dose: 50.0 mg/kg/injection, vehicle: Klucel (hydroxypropylcellulose) (HPC) 105 % of control
